In ChEMBL document CHEMBL1158663, “New acetylenes isolated from the bark of Heisteria acuminata” (J Nat Prod, 1998):

Tests used:
Ovis aries [1] = species: Ovis aries; assay: Inhibition of COX in sheep seminal vesicle microsome assessed as reduction in PGE2 concentration at 13 uM relative to control; type: microsomes
Sus scrofa = species: Sus scrofa; assay: Inhibition of 5-LO from pig leukocytes at 5 uM
Ovis aries [2] = species: Ovis aries; assay: Inhibition of COX in sheep seminal vesicle microsome assessed as reduction in PGE2 concentration at 6.5 uM relative to control; type: microsomes

Row | inhibition (Ovis aries [1]) [%] | inhibition (Sus scrofa) [%] | inhibition (Ovis aries [2]) [%] | SMILES
1 | 56 | 14 | 44 | CCCC/C=C/C#CC#CCCCCC(=O)O
2 | 51 | 45 | 36 | CCCC/C=C\C#CC#CCCCCCC(=O)O
3 | 56 | 55 | 40 | CCCCC/C=C\CC#CC#CCCCCCC(=O)O
4 | 45 | 21 | 33 | CCCCCC#CC#CC#CCCCCCCC(=O)O
5 | 55 | 18 | 36 | CCCCC#CC#CC#CCCCCC(=O)O
